Experimental data as given in ChEMBL document CHEMBL1909046, “DrugMatrix in vitro pharmacology data”.
pIC50, pKi: −log10 of the molar value.

Assays:
[1] = biological target: D(3) dopamine receptor (Homo sapiens, UniProt P35462); assay: DRUGMATRIX: Dopamine D3 radioligand binding (ligand: [3H] Spiperone); type: cell membranes, CHO, Membrane; conditions: for IC50: cho; for pIC50: read-out: IC50; for pKi: read-out: Ki
[2] = biological target: D(1A) dopamine receptor (Homo sapiens, UniProt P21728); assay: DRUGMATRIX: Dopamine D1 radioligand binding (ligand: [3H] SCH-23390); type: cell membranes, CHO, Membrane; conditions: cho; Not Active = under 50% inhibition at 10 µM
Chain of D(1A) dopamine receptor (P21728 whole entry): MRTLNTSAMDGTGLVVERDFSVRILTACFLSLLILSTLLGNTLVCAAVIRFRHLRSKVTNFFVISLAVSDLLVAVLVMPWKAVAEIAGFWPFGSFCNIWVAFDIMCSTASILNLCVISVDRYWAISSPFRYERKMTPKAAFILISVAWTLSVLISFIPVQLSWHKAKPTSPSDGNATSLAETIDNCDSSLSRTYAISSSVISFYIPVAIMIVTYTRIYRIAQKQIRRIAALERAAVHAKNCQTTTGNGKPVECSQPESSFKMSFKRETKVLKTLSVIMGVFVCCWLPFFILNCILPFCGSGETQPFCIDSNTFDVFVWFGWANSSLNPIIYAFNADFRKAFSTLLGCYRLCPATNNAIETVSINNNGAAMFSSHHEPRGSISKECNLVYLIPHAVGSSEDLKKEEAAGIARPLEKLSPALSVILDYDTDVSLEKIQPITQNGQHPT

[3] = biological target: T1, Cytochrome P450 2A6 (Homo sapiens, UniProt P11509); conditions: bti-tn-5b1-4; further: in other assays of this panel Not Active means under 50% inhibition at 10 µM
T1 sequence (P11509 whole entry): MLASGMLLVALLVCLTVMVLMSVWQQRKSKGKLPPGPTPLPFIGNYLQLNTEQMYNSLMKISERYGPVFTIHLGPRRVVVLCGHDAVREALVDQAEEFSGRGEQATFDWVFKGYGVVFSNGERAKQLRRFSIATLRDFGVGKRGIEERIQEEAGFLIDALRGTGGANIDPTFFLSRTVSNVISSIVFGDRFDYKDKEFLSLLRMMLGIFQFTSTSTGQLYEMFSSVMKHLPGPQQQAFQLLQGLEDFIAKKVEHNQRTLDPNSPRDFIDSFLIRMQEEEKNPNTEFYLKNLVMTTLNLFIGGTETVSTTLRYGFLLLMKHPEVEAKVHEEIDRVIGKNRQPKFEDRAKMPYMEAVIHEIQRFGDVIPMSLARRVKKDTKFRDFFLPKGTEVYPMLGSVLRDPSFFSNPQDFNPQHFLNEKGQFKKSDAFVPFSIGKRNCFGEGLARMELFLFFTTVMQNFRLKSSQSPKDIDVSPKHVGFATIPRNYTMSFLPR

[4] = biological target: Cytochrome P450 2D6 (Homo sapiens, UniProt P10635); conditions: bti-tn-5b1-4; further: in other assays of this panel Not Active means under 50% inhibition at 10 µM
Chain of Cytochrome P450 2D6 (P10635 whole entry): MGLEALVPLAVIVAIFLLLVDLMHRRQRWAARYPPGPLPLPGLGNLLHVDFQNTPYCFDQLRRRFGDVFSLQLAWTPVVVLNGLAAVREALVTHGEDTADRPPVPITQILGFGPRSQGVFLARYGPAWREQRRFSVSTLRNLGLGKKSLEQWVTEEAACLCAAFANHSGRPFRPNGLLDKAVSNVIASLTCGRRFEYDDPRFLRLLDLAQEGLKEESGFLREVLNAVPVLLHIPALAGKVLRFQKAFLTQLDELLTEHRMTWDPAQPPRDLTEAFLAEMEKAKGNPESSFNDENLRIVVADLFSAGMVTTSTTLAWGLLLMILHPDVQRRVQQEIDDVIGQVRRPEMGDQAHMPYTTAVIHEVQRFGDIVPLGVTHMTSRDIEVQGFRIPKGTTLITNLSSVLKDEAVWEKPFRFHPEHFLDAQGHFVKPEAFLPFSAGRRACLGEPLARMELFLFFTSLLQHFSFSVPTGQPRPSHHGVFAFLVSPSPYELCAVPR

[5] = biological target: T2, Estrogen receptor (Homo sapiens, UniProt P03372); conditions: sf9; further: in other assays of this panel Not Active means under 50% inhibition at 10 µM
T2 sequence (P03372 whole entry): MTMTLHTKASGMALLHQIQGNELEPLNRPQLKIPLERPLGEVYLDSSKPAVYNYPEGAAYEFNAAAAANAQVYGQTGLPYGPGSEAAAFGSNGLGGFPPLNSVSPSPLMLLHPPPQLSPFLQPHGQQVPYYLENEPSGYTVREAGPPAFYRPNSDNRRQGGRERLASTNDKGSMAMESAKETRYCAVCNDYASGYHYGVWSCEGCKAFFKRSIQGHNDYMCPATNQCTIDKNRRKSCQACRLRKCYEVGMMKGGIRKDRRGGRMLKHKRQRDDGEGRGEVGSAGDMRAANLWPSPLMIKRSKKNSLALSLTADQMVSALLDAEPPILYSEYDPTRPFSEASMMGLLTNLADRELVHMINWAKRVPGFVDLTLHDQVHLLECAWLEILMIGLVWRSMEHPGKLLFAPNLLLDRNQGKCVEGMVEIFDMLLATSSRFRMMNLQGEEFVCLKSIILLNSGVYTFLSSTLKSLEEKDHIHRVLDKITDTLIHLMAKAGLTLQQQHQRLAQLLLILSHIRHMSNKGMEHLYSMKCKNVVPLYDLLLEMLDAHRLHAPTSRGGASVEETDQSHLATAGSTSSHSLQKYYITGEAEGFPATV

[6] = biological target: Estrogen receptor beta (Homo sapiens, UniProt Q92731); conditions: sf9; further: in other assays of this panel Not Active means under 50% inhibition at 10 µM
Chain of Estrogen receptor beta (Q92731 whole entry): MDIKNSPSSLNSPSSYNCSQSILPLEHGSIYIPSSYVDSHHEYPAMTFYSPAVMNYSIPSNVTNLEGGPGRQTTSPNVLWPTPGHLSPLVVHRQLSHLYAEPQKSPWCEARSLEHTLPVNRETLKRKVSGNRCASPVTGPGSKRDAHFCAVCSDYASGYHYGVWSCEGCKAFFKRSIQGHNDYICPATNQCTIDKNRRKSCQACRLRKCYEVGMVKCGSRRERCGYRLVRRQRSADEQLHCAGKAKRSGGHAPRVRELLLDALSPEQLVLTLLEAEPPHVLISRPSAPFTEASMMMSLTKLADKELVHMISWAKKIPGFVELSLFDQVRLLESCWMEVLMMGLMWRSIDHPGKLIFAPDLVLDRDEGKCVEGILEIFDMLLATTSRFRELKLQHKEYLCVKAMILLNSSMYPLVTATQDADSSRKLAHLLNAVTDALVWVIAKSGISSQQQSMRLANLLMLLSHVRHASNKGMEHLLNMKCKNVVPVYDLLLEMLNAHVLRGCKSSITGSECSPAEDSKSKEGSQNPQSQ

[7] = biological target: Voltage-gated inwardly rectifying potassium channel KCNH2 (Homo sapiens, UniProt Q12809); conditions: hek293; further: in other assays of this panel Not Active means under 50% inhibition at 10 µM
Chain of Voltage-gated inwardly rectifying potassium channel KCNH2 (Q12809 whole entry): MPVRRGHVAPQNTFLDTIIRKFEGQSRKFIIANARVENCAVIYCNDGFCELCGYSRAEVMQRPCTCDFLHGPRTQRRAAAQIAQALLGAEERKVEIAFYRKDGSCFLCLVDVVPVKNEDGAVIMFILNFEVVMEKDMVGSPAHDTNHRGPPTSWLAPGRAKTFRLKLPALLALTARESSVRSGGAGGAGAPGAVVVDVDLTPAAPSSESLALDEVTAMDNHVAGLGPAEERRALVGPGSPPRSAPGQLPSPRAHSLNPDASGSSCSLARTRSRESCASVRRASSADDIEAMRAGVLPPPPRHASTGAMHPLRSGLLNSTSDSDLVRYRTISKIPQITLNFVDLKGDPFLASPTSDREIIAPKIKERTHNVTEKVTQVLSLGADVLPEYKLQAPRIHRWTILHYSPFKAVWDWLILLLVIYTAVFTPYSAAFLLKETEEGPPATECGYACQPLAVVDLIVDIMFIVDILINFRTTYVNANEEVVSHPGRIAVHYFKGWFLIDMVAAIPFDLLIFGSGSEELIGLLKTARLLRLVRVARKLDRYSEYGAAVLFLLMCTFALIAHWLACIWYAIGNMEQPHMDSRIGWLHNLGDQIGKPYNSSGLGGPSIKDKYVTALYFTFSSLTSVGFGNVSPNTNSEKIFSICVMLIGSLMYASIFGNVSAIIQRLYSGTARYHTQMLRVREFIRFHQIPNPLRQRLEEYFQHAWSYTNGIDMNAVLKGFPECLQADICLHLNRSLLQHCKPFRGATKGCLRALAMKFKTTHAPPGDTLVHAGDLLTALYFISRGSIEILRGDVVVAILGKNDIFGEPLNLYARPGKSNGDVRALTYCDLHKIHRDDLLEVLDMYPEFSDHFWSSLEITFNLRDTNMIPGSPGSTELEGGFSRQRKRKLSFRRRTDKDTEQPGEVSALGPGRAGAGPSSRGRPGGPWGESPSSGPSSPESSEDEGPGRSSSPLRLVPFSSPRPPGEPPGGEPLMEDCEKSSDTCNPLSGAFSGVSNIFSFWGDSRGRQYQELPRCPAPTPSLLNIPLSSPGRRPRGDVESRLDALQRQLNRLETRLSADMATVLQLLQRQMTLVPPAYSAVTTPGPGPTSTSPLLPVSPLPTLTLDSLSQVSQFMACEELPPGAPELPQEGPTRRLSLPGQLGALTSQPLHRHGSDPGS

[8] = biological target: Cytochrome P450 2C19 (Homo sapiens, UniProt P33261); conditions: bti-tn-5b1-4; further: in other assays of this panel Not Active means under 50% inhibition at 10 µM
Chain of Cytochrome P450 2C19 (P33261 whole entry): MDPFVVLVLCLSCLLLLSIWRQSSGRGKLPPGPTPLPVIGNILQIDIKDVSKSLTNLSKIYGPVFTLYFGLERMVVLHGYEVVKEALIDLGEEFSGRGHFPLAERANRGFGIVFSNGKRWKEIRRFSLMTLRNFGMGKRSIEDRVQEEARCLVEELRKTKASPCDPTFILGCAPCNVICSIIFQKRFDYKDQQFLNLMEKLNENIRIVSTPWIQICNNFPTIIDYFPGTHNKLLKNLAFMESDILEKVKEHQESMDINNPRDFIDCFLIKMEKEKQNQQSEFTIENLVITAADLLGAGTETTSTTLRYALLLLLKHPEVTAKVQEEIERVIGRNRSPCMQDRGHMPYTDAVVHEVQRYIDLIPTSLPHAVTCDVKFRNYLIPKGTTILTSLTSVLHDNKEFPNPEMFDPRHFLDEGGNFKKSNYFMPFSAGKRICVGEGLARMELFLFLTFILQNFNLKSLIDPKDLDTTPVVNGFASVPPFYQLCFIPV

[9] = biological target: T3, Cytochrome P450 1A2 (Homo sapiens, UniProt P05177); conditions: bti-tn-5b1-4; further: in other assays of this panel Not Active means under 50% inhibition at 10 µM
T3 sequence (P05177 whole entry): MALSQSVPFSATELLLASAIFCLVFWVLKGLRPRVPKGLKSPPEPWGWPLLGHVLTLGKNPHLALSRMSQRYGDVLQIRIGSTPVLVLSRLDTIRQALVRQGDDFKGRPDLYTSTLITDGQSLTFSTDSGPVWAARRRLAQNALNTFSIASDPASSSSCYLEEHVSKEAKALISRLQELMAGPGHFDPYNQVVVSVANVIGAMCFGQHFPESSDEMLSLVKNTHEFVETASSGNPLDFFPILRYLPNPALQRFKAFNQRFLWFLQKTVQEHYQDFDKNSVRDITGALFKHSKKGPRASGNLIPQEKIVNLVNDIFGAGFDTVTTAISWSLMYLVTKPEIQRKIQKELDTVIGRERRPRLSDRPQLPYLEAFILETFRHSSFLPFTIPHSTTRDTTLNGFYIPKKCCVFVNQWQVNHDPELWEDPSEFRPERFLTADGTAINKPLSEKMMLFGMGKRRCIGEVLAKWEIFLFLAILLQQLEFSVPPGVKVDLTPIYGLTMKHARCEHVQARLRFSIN

Chain of D(3) dopamine receptor (P35462 whole entry): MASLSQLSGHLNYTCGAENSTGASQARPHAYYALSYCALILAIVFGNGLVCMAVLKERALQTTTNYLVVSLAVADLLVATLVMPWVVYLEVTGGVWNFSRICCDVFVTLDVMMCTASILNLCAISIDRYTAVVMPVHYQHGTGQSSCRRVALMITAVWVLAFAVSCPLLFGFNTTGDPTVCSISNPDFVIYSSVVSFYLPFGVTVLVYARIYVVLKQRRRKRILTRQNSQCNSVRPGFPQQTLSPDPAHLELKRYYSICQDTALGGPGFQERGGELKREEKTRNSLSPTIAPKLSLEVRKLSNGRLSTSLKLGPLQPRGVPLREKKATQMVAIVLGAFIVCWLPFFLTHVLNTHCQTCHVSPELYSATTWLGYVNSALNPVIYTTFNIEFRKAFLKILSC

SMILES | IC50 [1] | IC50 [2] | IC50 [3] | Ki [3] | IC50 [4] | Ki [4] | IC50 [5] | IC50 [6] | IC50 [7] | Ki [7] | IC50 [8] | Ki [8] | IC50 [9] | Ki [9] | pIC50 [1] | pKi [1]
CCOc1cc(N)c(Cl)cc1C(=O)NCC1CN(Cc2ccc(F)cc2)CCO1 (stereo not given) [MOSAPRIDE] | Not Active | Not Active | Not Active | Not Active | Not Active | Not Active | Not Active | Not Active | Not Active | Not Active | – | – | – | – | – | –
Nc1nc(N)c2nc(-c3ccccc3)c(N)nc2n1 | Not Active | Not Active | Not Active | Not Active | – | – | Not Active | Not Active | Not Active | Not Active | Not Active | Not Active | Not Active | Not Active | – | –
Oc1ccc(/C=C/c2cc(O)cc(O)c2)cc1 [RESVERATROL] | Not Active | Not Active | Not Active | Not Active | Not Active | Not Active | Not Active | – | Not Active | Not Active | – | – | – | – | – | –
Cc1ccnc(NS(=O)(=O)c2ccc(N)cc2)n1 [SULFAMERAZINE] | Not Active | Not Active | Not Active | Not Active | Not Active | Not Active | Not Active | – | Not Active | Not Active | Not Active | Not Active | Not Active | Not Active | – | –
CCN(CC)C(=S)SSC(=S)N(CC)CC | – | – | Not Active | Not Active | Not Active | Not Active | Not Active | Not Active | Not Active | Not Active | Not Active | Not Active | – | – | 5.96 | 6.43
COC(=O)Nc1nc2ccc(C(=O)c3ccccc3)cc2[nH]1 [MEBENDAZOLE] | Not Active | Not Active | Not Active | Not Active | Not Active | Not Active | Not Active | – | Not Active | Not Active | Not Active | Not Active | Not Active | Not Active | – | –
CC(O)C(=O)O (stereo not given) [LACTIC ACID] | Not Active | Not Active | Not Active | Not Active | Not Active | Not Active | Not Active | – | Not Active | Not Active | Not Active | Not Active | Not Active | Not Active | – | –
CN1C[C@H](CNC(=O)OCc2ccccc2)C[C@@H]2c3cccc4c3c(cn4C)C[C@H]21 [METERGOLINE] | – | – | Not Active | Not Active | – | – | Not Active | Not Active | Not Active | Not Active | – | – | Not Active | Not Active | – | –
CO[C@@H]1[C@@H](OC)[C@H](C)[C@@](O)(CC(=O)O)O[C@H]1[C@H](C)[C@H]1O[C@@]2(CC[C@@](C)([C@H]3CC[C@@](C)([C@@H]4O[C@@H]([C@H]5O[C@](C)(O)[C@H](C)C[C@@H]5C)C[C@@H]4O[C@@H]4C[C@H](OC)[C@@H](OC)[C@H](C)O4)O3)O2)C[C@H](O)[C@H]1C.N [MADURAMICIN] | Not Active | – | Not Active | Not Active | Not Active | Not Active | Not Active | – | Not Active | Not Active | Not Active | Not Active | Not Active | Not Active | – | –
Cc1ccc(S(=O)(=O)NC(=O)NN2CCCCCC2)cc1 [TOLAZAMIDE] | Not Active | Not Active | – | – | – | – | Not Active | Not Active | Not Active | Not Active | – | – | – | – | – | –
CC(=O)O[C@]1(C(C)=O)CC[C@H]2[C@@H]3C[C@H](C)C4=CC(=O)CC[C@]4(C)[C@H]3CC[C@@]21C [MEDROXYPROGESTERONE ACETATE] | Not Active | Not Active | Not Active | Not Active | Not Active | Not Active | Not Active | – | Not Active | Not Active | Not Active | Not Active | Not Active | Not Active | – | –
CCN(CC)CCNC(=O)c1cc(Cl)c(N)cc1OC [METOCLOPRAMIDE] | – | Not Active | Not Active | Not Active | – | – | Not Active | Not Active | Not Active | Not Active | Not Active | Not Active | Not Active | Not Active | 6.70 | 7.17
Cc1nnc(NS(=O)(=O)c2ccc(N)cc2)s1 [SULFAMETHIZOLE] | Not Active | Not Active | Not Active | Not Active | Not Active | Not Active | Not Active | – | Not Active | Not Active | Not Active | Not Active | Not Active | Not Active | – | –
CCC(C)(C)C(=O)O[C@H]1C[C@@H](C)C=C2C=C[C@H](C)[C@H](CC[C@@H]3C[C@@H](O)CC(=O)O3)[C@H]21 [SIMVASTATIN] | Not Active | Not Active | – | – | – | – | Not Active | Not Active | – | – | – | – | – | – | – | –
CC[C@H](C)[C@@H](CO[C@@H](Cc1ccccc1)C(=O)N[C@@H](CCS(C)(=O)=O)C(=O)OC(C)C)NC[C@@H](N)CS | – | Not Active | Not Active | Not Active | – | – | Not Active | Not Active | Not Active | Not Active | Not Active | Not Active | Not Active | Not Active | 7.55 | 8.02
OC[C@@H](O)[C@@H](O)[C@H](O)[C@H](O)CO [MANNITOL] | Not Active | Not Active | Not Active | Not Active | Not Active | Not Active | Not Active | – | Not Active | Not Active | Not Active | Not Active | Not Active | Not Active | – | –
C[N+]1(C)[C@@H]2C[C@@H](OC(=O)[C@H](CO)c3ccccc3)C[C@H]1[C@@H]1O[C@@H]12.[Br-] [METHSCOPOLAMINE BROMIDE] | Not Active | Not Active | Not Active | Not Active | Not Active | Not Active | Not Active | – | Not Active | Not Active | Not Active | Not Active | Not Active | Not Active | – | –
CNCCCC12CCC(c3ccccc31)c1ccccc12 [MAPROTILINE] | – | – | – | – | – | – | Not Active | Not Active | Not Active | Not Active | – | – | – | – | – | –
CC1=C(/C=C/C(C)=C/C=C/C(C)=C/C(=O)O)C(C)(C)CCC1 [TRETINOIN] | Not Active | Not Active | Not Active | Not Active | Not Active | Not Active | Not Active | – | – | – | Not Active | Not Active | Not Active | Not Active | – | –
